The subject of the assay is L1210 leukemia ip in BDF1 mice, survival T/C. Description: NCI In Vivo Anticancer Drug Screen. Data for tumor model L1210 Leukemia (intraperitoneal) in B6D2F1 (BDF1) mice. To be noted: endpoint: mean survival time, higher = longer survival. The essentials:
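Value reflects the ratio of survival in compound-treated mice to survival in vehicle-treated controls, with both groups carrying the same transplanted tumor.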

[1] abbreviates: dose: 100.0 mg/kg/injection, schedule: Q04DX003 (ip), vehicle: saline with Tween-80.
[2] abbreviates: dose: 200.0 mg/kg/injection, schedule: Q04DX003 (ip), vehicle: saline with Tween-80.
Where [3] appears, read: dose: 400.0 mg/kg/injection, schedule: Q04DX003 (ip), vehicle: saline with Tween-80.
Where [4] appears, read: dose: 100.0 mg/kg/injection, schedule: Q01DX001 (ip), vehicle: saline with Tween-80.
[5] abbreviates: dose: 200.0 mg/kg/injection, schedule: Q01DX001 (ip), vehicle: saline with Tween-80.
The mark [6] stands for this setting: dose: 100.0 mg/kg/injection, schedule: Q01DX001 (ip), vehicle: Klucel (hydroxypropylcellulose) (HPC).
The mark [7] stands for this setting: dose: 100.0 mg/kg/injection, schedule: Q04DX003 (ip), vehicle: Klucel (hydroxypropylcellulose) (HPC).
[8] abbreviates: dose: 200.0 mg/kg/injection, schedule: Q01DX001 (ip), vehicle: Klucel (hydroxypropylcellulose) (HPC).
The mark [9] stands for this setting: dose: 200.0 mg/kg/injection, schedule: Q04DX003 (ip), vehicle: Klucel (hydroxypropylcellulose) (HPC).
The mark [10] stands for this setting: dose: 400.0 mg/kg/injection, schedule: Q01DX009 (ip), vehicle: Klucel (hydroxypropylcellulose) (HPC).
Setting [11] is: dose: 400.0 mg/kg/injection, schedule: Q04DX003 (ip), vehicle: Klucel (hydroxypropylcellulose) (HPC).

The text below walks through data of PubChem BioAssay AID248 (DTP/NCI, 2004).

Toxic doses and inconclusive results are not listed.

As to `O=C(O)c1cscc1Cc1ccccc1`, the T/C is, setting by setting: under setting [1], 90 % of control; under setting [2], 94 % of control; under setting [3], 95 % of control.

Turning to `Cc1ccc(S(=O)(=O)N(CCCc2c(C)nc(N)nc2NCCCc2ccccc2)c2ccccc2)cc1`, the T/C was 98 % of control (dose: 50.0 mg/kg/injection, schedule: Q01DX001 (ip), vehicle: saline with Tween-80); 98 % of control under setting [4]; 90 % of control under setting [5].

With `COc1ccc(OC)c(NC(=O)Oc2ccc(Cl)c(C)c2)c1`, the T/C is, setting by setting: under setting [1], 90 % of control; under setting [2], 87 % of control; under setting [3], 93 % of control.

Turning to `CCCCOC1NC(=O)NC(=O)C1=[N+]=[N-]` (stereo unspecified), the T/C was 98 % of control (dose: 50.0 mg/kg/injection, schedule: Q04DX003 (ip), vehicle: saline with Tween-80) and 102 % of control under setting [2].

As for `CCOC(=O)c1ccc(N=NN(C)C(C)CC)cc1` (stereo unspecified), the T/C was 113 % of control under setting [6]; 102 % of control under setting [7]; 101 % of control under setting [8]; 118 % of control under setting [9]; 124 % of control (dose: 400.0 mg/kg/injection, schedule: Q01DX001 (ip), vehicle: Klucel (hydroxypropylcellulose) (HPC)); 166 % of control under setting [10]. Moreover, under setting [11], the T/C was 122 % of control.

As to `Cc1ccc(NC(=O)Nc2ccccc2F)cc1NC(=O)Nc1ccccc1F`, the T/C runs as follows: (dose: 100.0 mg/kg/injection, schedule: Q01DX009 (ip), vehicle: saline with Tween-80) 93 % of control; (dose: 200.0 mg/kg/injection, schedule: Q01DX009 (ip), vehicle: saline with Tween-80) 88 % of control; (dose: 400.0 mg/kg/injection, schedule: Q01DX009 (ip), vehicle: saline with Tween-80) 94 % of control.

For `CN(C)C=NC1CCC(CC2CCCCC2)CC1` (stereo unspecified), the T/C (dose: 75.0 mg/kg/injection, schedule: Q04DX003 (ip), vehicle: Klucel (hydroxypropylcellulose) (HPC)) was 92 % of control; the T/C under setting [6] was 96 % of control; the T/C (dose: 150.0 mg/kg/injection, schedule: Q04DX003 (ip), vehicle: Klucel (hydroxypropylcellulose) (HPC)) was 100 % of control; the T/C under setting [8] is 95 % of control; the T/C (dose: 300.0 mg/kg/injection, schedule: Q04DX003 (ip), vehicle: Klucel (hydroxypropylcellulose) (HPC)) was 97 % of control.

In the case of `COc1ccccc1NC(=O)Nc1cccc(C)c1C`, the T/C was 96 % of control (dose: 100.0 mg/kg/injection, schedule: Q01DX009 (ip), vehicle: Klucel (hydroxypropylcellulose) (HPC)); 93 % of control under setting [7]; 92 % of control (dose: 200.0 mg/kg/injection, schedule: Q01DX009 (ip), vehicle: Klucel (hydroxypropylcellulose) (HPC)); 93 % of control under setting [9]; 100 % of control under setting [10]; 92 % of control under setting [11].

For `CCCCNC(=O)c1ccc(C)c(OCc2ccccc2)c1[N+](=O)[O-]`, the T/C is, setting by setting: (dose: 100.0 mg/kg/injection, schedule: Q01DX001 (ip), vehicle: saline) 108 % of control; (dose: 200.0 mg/kg/injection, schedule: Q01DX001 (ip), vehicle: saline) 87 % of control; (dose: 400.0 mg/kg/injection, schedule: Q01DX001 (ip), vehicle: saline) 90 % of control.

`COc1ccc(OC)c(NC(=S)NNC(=S)NNc2ccccc2)c1`: the T/C runs as follows: (dose: 100.0 mg/kg/injection, schedule: Q04DX002 (ip), vehicle: Klucel (hydroxypropylcellulose) (HPC)) 101 % of control; (dose: 200.0 mg/kg/injection, schedule: Q04DX002 (ip), vehicle: Klucel (hydroxypropylcellulose) (HPC)) 104 % of control; (dose: 400.0 mg/kg/injection, schedule: Q04DX002 (ip), vehicle: Klucel (hydroxypropylcellulose) (HPC)) 93 % of control.

As for `CC1(C)C(=O)C(C)(C)C1=NO`, the T/C (dose: 100.0 mg/kg/injection, schedule: Q04DX003 (ip), vehicle: saline) was 103 % of control; the T/C (dose: 200.0 mg/kg/injection, schedule: Q04DX003 (ip), vehicle: saline) was 95 % of control; the T/C (dose: 400.0 mg/kg/injection, schedule: Q04DX003 (ip), vehicle: saline) was 103 % of control.

With `C1CNC(CN2CCCC2)C1` (stereo unspecified), the T/C runs as follows: (dose: 75.0 mg/kg/injection, schedule: Q01DX001 (ip), vehicle: saline) 93 % of control; (dose: 150.0 mg/kg/injection, schedule: Q01DX001 (ip), vehicle: saline) 101 % of control; (dose: 300.0 mg/kg/injection, schedule: Q01DX001 (ip), vehicle: saline) 103 % of control.

Regarding `O=C(O)c1ccc(/C=C\c2cccc(S(=O)(=O)F)c2)cc1`, the T/C runs as follows: under setting [4], 100 % of control; under setting [5], 97 % of control; (dose: 400.0 mg/kg/injection, schedule: Q01DX001 (ip), vehicle: saline with Tween-80) 92 % of control.

Take `C[Si](C)(C)Cc1cccc(F)c1`: the T/C (dose: 25.6 mg/kg/injection, schedule: Q04DX002 (ip), vehicle: saline with Tween-80) is 93 % of control; the T/C (dose: 64.0 mg/kg/injection, schedule: Q04DX002 (ip), vehicle: saline with Tween-80) is 90 % of control; the T/C (dose: 160.0 mg/kg/injection, schedule: Q04DX002 (ip), vehicle: saline with Tween-80) was 87 % of control; the T/C (dose: 400.0 mg/kg/injection, schedule: Q04DX002 (ip), vehicle: saline with Tween-80) was 97 % of control.

Take `CC12CCC(O)(CC1)CC2=O`: the T/C (dose: 75.0 mg/kg/injection, schedule: Q04DX002 (ip), vehicle: saline) is 95 % of control; the T/C (dose: 150.0 mg/kg/injection, schedule: Q04DX002 (ip), vehicle: saline) was 95 % of control; the T/C (dose: 300.0 mg/kg/injection, schedule: Q04DX002 (ip), vehicle: saline) was 103 % of control.

In the case of `CC(N)CN` (stereo unspecified), the T/C is 100 % of control (dose: 100.0 mg/kg/injection, schedule: Q04DX002 (ip), vehicle: saline); 89 % of control (dose: 200.0 mg/kg/injection, schedule: Q04DX002 (ip), vehicle: saline); 103 % of control (dose: 400.0 mg/kg/injection, schedule: Q04DX002 (ip), vehicle: saline).

`CNCC(N)=O`: the T/C is 108 % of control (dose: 50.0 mg/kg/injection, schedule: Q01DX001 (ip), vehicle: carboxymethylcellulose (CMC)); 105 % of control (dose: 100.0 mg/kg/injection, schedule: Q01DX001 (ip), vehicle: carboxymethylcellulose (CMC)); 98 % of control (dose: 200.0 mg/kg/injection, schedule: Q01DX001 (ip), vehicle: carboxymethylcellulose (CMC)); 95 % of control (dose: 400.0 mg/kg/injection, schedule: Q01DX001 (ip), vehicle: carboxymethylcellulose (CMC)).

For the molecule `COC(=O)[CH]([Hg][O]C(C)=O)C(OC)c1ccccc1` (stereo unspecified), the T/C by setting is: (dose: 3.0 mg/kg/injection, schedule: Q04DX002 (ip), vehicle: carboxymethylcellulose (CMC)) 86 % of control; (dose: 6.0 mg/kg/injection, schedule: Q04DX002 (ip), vehicle: carboxymethylcellulose (CMC)) 93 % of control; (dose: 12.5 mg/kg/injection, schedule: Q04DX002 (ip), vehicle: carboxymethylcellulose (CMC)) 94 % of control; (dose: 25.0 mg/kg/injection, schedule: Q04DX002 (ip), vehicle: carboxymethylcellulose (CMC)) 98 % of control.

With `CC1(C)CCC(C)(C)C(=O)C1=O`, the T/C by setting is: (dose: 10.0 mg/kg/injection, schedule: Q01DX009 (ip), vehicle: Klucel (hydroxypropylcellulose) (HPC)) 105 % of control; (dose: 10.0 mg/kg/injection, schedule: Q04DX003 (ip), vehicle: Klucel (hydroxypropylcellulose) (HPC)) 97 % of control; (dose: 20.0 mg/kg/injection, schedule: Q01DX001 (ip), vehicle: Klucel (hydroxypropylcellulose) (HPC)) 103 % of control; (dose: 20.0 mg/kg/injection, schedule: Q01DX009 (ip), vehicle: Klucel (hydroxypropylcellulose) (HPC)) 89 % of control; (dose: 20.0 mg/kg/injection, schedule: Q04DX003 (ip), vehicle: Klucel (hydroxypropylcellulose) (HPC)) 102 % of control; (dose: 40.0 mg/kg/injection, schedule: Q01DX001 (ip), vehicle: Klucel (hydroxypropylcellulose) (HPC)) 102 % of control. The T/C by setting is: (dose: 40.0 mg/kg/injection, schedule: Q01DX009 (ip), vehicle: Klucel (hydroxypropylcellulose) (HPC)) 89 % of control; (dose: 40.0 mg/kg/injection, schedule: Q04DX003 (ip), vehicle: Klucel (hydroxypropylcellulose) (HPC)) 100 % of control.

Take `CC1(C(=O)N2c3ccccc3C=CC2C#N)CC2C=CC1C2` (stereo unspecified): the T/C under setting [7] was 106 % of control, the T/C under setting [9] is 110 % of control and the T/C under setting [11] was 123 % of control.
